Tests used:
[1] = system: HCT-116 colon cancer cells; assay: Killing of colon cancer cells by APX3330 combined with CPI-613 (Example 4); assay type: cell-based, human; settings: 0.2, 0.8, 1.6, 3.1, 6.3 μM APX3330 combined with 100 and 75 μM CPI-613
Description: Standard 3D co-culture assays as described in Example 2 were used to evaluate the cytotoxicity of the combination on tumor cells as well as cancer-associated fibroblasts.
As shown in FIGS. 15A-15C, there was greater than 50% killing of HCT-116 colon cancer cells using 0.2, 0.8, 1.6, 3.1, 6.3 μM APX3330 when combined with 100 and 75 μM CPI-613.

[2] = system: mouse C26 colon cancer cells; assay: Colon cancer orthotopic tumors, oxaliplatin with APX3330; assay type: in vivo, mice
Description: Immune competent mice were injected with mouse C26 colon cancer cells in the caecum (FIG. 29A). Animals were treated with either oxaliplatin or oxaliplatin with APX3330 and tumor size determined compared to vehicle controls (FIG. 29B).

Pa03C [3] = assay: 3D tumor spheroid culture growth (fluorescence intensity)
pancreatic tumor = assay: Xenograft model, APX3330 with gemcitabine; assay type: in vivo; settings: APX3330 (25 mg/kg) combined with gemcitabine (35 mg/kg)
Excerpt: The data in FIG. 14C is tumor volume at sacrifice. Combination therapy was well-tolerated.

[4] = system: human adenocarcinoma colon suspension cell line Colo-201; assay: Alamar blue cytotoxicity combination assay (CalcuSyn); assay type: cell-based
Description: Colo-201 (Yunhua Liu) was seeded in a 96-well tissue culture plate at 2000 cells/well in RPMI+Sodium Pyruvate+10% FBS and grown overnight at 37° C., 5% CO2. 2× Drug Media RPMI+Sodium Pyruvate+5% FBS was added at dosages of APX3330 (Apexian) in a 5-point spread from 75 uM to 6.3 uM and spiked with CPI-613 (Apexbio Technology) at 75 uM, or 50 uM, or alone for single agent. Cells were incubated 72 hours at 37° C., 5% CO2 and then 10% Alamar blue fluorescent cell viability indicator (INVITROGEN™) was added directly to plate. Indicator was incubated 4 hours at 37° C., 5% CO2, and then read on a fluorescent reader (SYNERGY™ H4 BioTek). […] FIG. 31D depicts Chou-Talalay Index (CI) of dose combinations (CalcuSyn). FIG. 31E depicts synergistic drug combinations (CalcuSyn) of APX3330 spiked with 50 uM CPI-613 or 75 uM CPI-613. […] Data shown is the average of 3 separate cytotoxicity assays; each assay normalized to media only control.

Pa03C [5] = assay: Monolayer cytotoxicity under hypoxia (alamarBlue); assay type: cell-based; settings: Homo sapiens, N = 3, read-out: LC50 (the source's name)
Excerpt: (§1) To determine target selectivity, analogs of APX3330, APX2009 and APX2014, and an analog of SLC-0111, FC12-531A, were used.

Panc10.05 = assay: Monolayer cytotoxicity under hypoxia (alamarBlue); assay type: cell-based; settings: Homo sapiens, Panc1005, Panc10.05, N = 3, read-out: LC50 (the source's name)
Excerpt: as §1

murine KPC cells = assay: Alamar blue proliferation-based assay; assay type: cell-based; settings: 3 days incubation
[6] = system: patient-derived Pa03C tumors with CAFs; assay: Flank co-culture model of PDAC, APX3330 and Ruxolitinib; assay type: in vivo, mice
Description: Treatment of the implanted tumors started on day 11 post implant. Particularly, the co-cultures implanted included 2.5×10^6 tumor cells +/−5 ×10^6 CAFs, providing a 1:2 ratio of tumor cell to CAF. […] The mice were then administered either 50 mg/kg APX3330 BID in 4% Cr:EtOH, 50 mg/kg Rux SID pm in 4% Cr:EtOH, or combinations of the agents. Treatment schedule consisted of treating for 5 days and then giving 2 days off treatment until the tumors reached an average size of 2000 mm^3.

CCCCCCCCC/C(=C\C1=C(C)C(=O)C(OC)=C(OC)C1=O)C(=O)O [APX3330]
killing of HCT-116 colon cancer cells [1]: greater than 50%
oxaliplatin induced loss of myenteric neurons in the colon ([2]; CRC mice): alleviated oxaliplatin induced loss of myenteric neurons
tumor cell killing vs oxaliplatin alone ([2]; oxaliplatin with APX3330): dramatic and significantly increased tumor cell killing
effect of gemcitabine with APX3330 on tumor (Pa03C [3]; Pa03C in co-culture with CAFs, APX3330 50 μM): dose-dependent combination effect
CC50 (Pa03C [3]; read-out: LC50, 3D Cultures, Tumor Alone, Pa03C, D12 curves): 37.9 µM
tolerability of combination therapy (pancreatic tumor): well-tolerated
tumor volume at sacrifice vs single agents alone (pancreatic tumor): significantly decreased tumor volume
drug combination synergy (Chou-Talalay, CalcuSyn) ([4]; APX3330 75 uM and 50 uM spiked with 50 uM CPI-613, 72 hours): synergy was observed
drug combination synergy (Chou-Talalay, CalcuSyn) ([4]; all but one APX3330 dosage (6.3 uM), spiked with 75 uM CPI-613, 72 hours): Synergy was observed
CC50 (Pa03C [5]): 50.2 µM
CC50 (Panc10.05): 40.3 µM
cytotoxicity in combination with Napabucasin (murine KPC cells): enhancement of Napa-induced cytotoxicity
tumor volume ([6]; Ruxolitinib (Rux) in combination with APX3330): reduction in tumor volume
average tumor size ([6]; combination therapy: 50 mg/kg APX3330 BID with 50 mg/kg Rux SID, day 31): 1200 mm^3
average tumor size ([6]; treatment alone, 50 mg/kg, day 28): 1750 mm³
